Data: patent publication US10206906B2, “Synergistic combination of a phenolic-rich maple syrup extract and an antibiotic” (priority 2015, dated 2019)

Columns and labels:
E. coli CFT073 biofilm = assay: Biofilm formation, microtitre plate crystal violet assay; format: cell-based, Escherichia coli; conditions: p<0.05
Method: (§1) Biofilm formation is quantified using the standard microtitre plate model. […] Aliquots (100 μL) of these cultures are transferred into the wells of polystyrene, flat bottom, non-treated 96 well plates (Falcon™, Corning™), in triplicate. For all assays, biofilms are allowed to develop for 16 h at 37° C. under static conditions, after which OD600 values are recorded, the spent broth is decanted from the wells, and the wells are gently rinsed three times with DI water. The washed biofilm is stained with crystal violet (CV). For CV stain assay, 100 μL of 0.1% (w/v) CV is loaded in each well and the plates are incubated for 15 min under static conditions at room temperature. The wells are subsequently rinsed with DI water to remove excess dye and the CV adsorbed to the biomass in each well is solubilized in 100 μL of absolute ethanol for 10 min. The solubilized CV is then quantified (as OD570) using a microplate reader. Control experiments are performed with cell-free broth to adjust for the background signal.

[1] = test system: P. mirabilis HI4320 biofilm; assay: as above; format: cell-based, Proteus mirabilis; conditions: p<0.05
Method: as §1

P. mirabilis HI4320 = assay: Bacterial colony forming ability (CFU counts after exposure); format: cell-based, Proteus mirabilis; conditions: log decrease vs untreated control, 4 × MIC, 10 min, CTAB 10 μM
Method: (§2) The BacLight kit (L-13152, Invitrogen™, Life Technologies Inc., Canada) is used to assess cell membrane damage. Overnight bacterial cultures are diluted 1:40 in fresh MHBII broth to a final volume of 5 mL, grown to an OD600 of 0.5-0.6, washed with filter-sterilized 10 mM phosphate buffered saline (PBS, pH 7.0) and resuspended in 1/10 of the original volume. […] Cultures are incubated at room temperature (21±2° C.) on a tube rocker for 10 min. At the end of the incubation period, an aliquot is taken for CFU counts and the remaining suspension is washed with 10 mM PBS and resuspended to an OD600) of 0.3. An aliquot (100 μL) of each bacterial suspension is removed and added to a 96-well, black, clear-bottom plate (Corning™, Fisher Scientific, ON, Canada) along with an equal volume of the BacLight™ reagent (2× stock solution, L13152, Invitrogen™, Life Technologies Inc., Canada) and the plates are incubated for 10 min at room temperature in the dark. At the end of the incubation period, fluorescence intensity is recorded for both kit components, SYTO-9 (ex/em 485/530 nm) and propidium iodide (ex/em 485/645 nm), using the microplate reader. Fluorescence readings from samples are normalized to the values obtained from untreated control to determine the ratio of membrane compromised cells to cells with intact membrane. Cetyltrimethylammonium bromide (CTAB, Sigma-Aldrich Canada), a cationic detergent that is known to cause membrane damage, is used at concentration of 10 μM as a positive control for membrane disruption.

[2] = test system: cell membrane of P. mirabilis HI4320; assay: BacLight membrane integrity assay; format: cell-based, Proteus mirabilis; conditions: PRMSE, catechol at 4 × MIC for 10 min; CTAB 10 μM; untreated = 100
Method: as §2, with “Cetyltrimethylammonium bromide (CTAB, Sigma-Aldrich Canada), a cationic detergent that is known to cause membrane damage, is used at concentration of 10 μM as a positive control for membrane disruption.” left out

[3] = test system: cell membrane of E. coli CFT073; assay: BacLight membrane integrity assay; format: cell-based, Escherichia coli; conditions: PRMSE, catechol at 4 × MIC for 10 min; CTAB 10 μM; untreated = 100
Method: as §2, with “Cetyltrimethylammonium bromide (CTAB, Sigma-Aldrich Canada), a cationic detergent that is known to cause membrane damage, is used at concentration of 10 μM as a positive control for membrane disruption.” left out

[4] = test system: outer membrane of P. aeruginosa PA14; assay: Outer membrane permeabilization, NPN uptake assay; format: cell-based, Pseudomonas aeruginosa; conditions: sub-MIC; concentration giving maximal increase in NPN uptake
Method: The cells are harvested, washed with 5 mM HEPES buffer (pH 7.2), and resuspended in the same volume (10 mL) of 5 mM HEPES buffer (pH 7.2) containing 1 mM N-ethylmaleimide (NEM, Sigma-Aldrich Canada). Aliquots (1 mL) are mixed with NPN to a final concentration of 10 μM (in cell suspension) and fluorescence is measured using the microplate reader (ex/em 350/420 nm).

E. coli CFT073 = assay: Checkerboard microdilution assay (growth inhibition synergy); format: cell-based, Escherichia coli
Method: The checkerboard microdilution assay is used for evaluation of in vitro antimicrobial synergy between two compounds (i.e., antibiotic/PRMSE, antibiotic/pure phenolic compound, and pure phenolic compounds with each other). Two-fold serial dilutions are prepared in MHB-II for each of the two compounds under study. The serial dilutions are then loaded into 96 well plates to achieve combinations having different concentrations of each of the two compounds. Each well is subsequently inoculated with 10^6 CFU mL^−1 of the desired bacterial strain and incubated at 37° C. for 18 h under static conditions. The Fractional Inhibitory Concentration Index (FICI) for each combination is calculated by using the following formula: FICcomponent 1=MICcomponent 1, in combination/MICcomponent 1,alone FICI=FICcomponent 1+FICcomponent 2
The FICIs are interpreted as follows: FICI of […] (synergy); 0.5<FICI ≤1 (no interaction/indifference); FICI of >4 (antagonism).

[5] = test system: proton motive force-driven multidrug efflux pump of E. coli CFT073; assay: Ethidium bromide (EtBr) efflux assay; format: cell-based, Escherichia coli; conditions: PRMSE, catechol at 0.25 times the MIC; CCCP 100 μM; untreated cells 36.9
Method: (§3) An overnight grown culture of each strain is diluted 1:100 using MHB-II broth to a final volume of 10 mL and grown to an OD600 of 0.8-1.0 (at 37° C., 150 rpm). […] The tubes are incubated for 1 h (37° C., 150 rpm). The inoculum is then adjusted to 0.4 OD600 with MHB-II broth containing 5 μM EtBr and 2 mL aliquots of this mixture are pelleted (5000×g, 10 min at 4° C.). The pellets are incubated on ice immediately, resuspended in 1 mL of MHB-II, and aliquoted (200 μL) into a polystyrene 96 well black, clear-bottom plate (Corning™, Fisher Scientific, ON, Canada). EtBr efflux from the cells is monitored at room temperature using the microplate reader (ex/em 530/600 nm). Readings are taken at 5 min intervals for 1 h to monitor efflux pump activity. The background fluorescence of the medium is subtracted from all measurements and the assay is repeated independently in triplicate.

[6] = test system: proton motive force-driven multidrug efflux pump of P. aeruginosa PA14; assay: Ethidium bromide (EtBr) efflux assay; format: cell-based, Pseudomonas aeruginosa; conditions: PRMSE, catechol at 0.25 times the MIC; CCCP 100 μM; untreated cells 30.9
Method: as §3

[7] = test system: proton motive force-driven multidrug efflux pump of P. aeruginosa PAO1; assay: Ethidium bromide (EtBr) efflux assay; format: cell-based, Pseudomonas aeruginosa; conditions: PRMSE, catechol at 0.25 times the MIC; CCCP 100 μM; untreated cells 37.6
Method: as §3

[8] = substance alone at sub-lethal concentrations, 16 h
[9] = with ciprofloxacin, both at sub-lethal concentrations

## Oc1ccccc1O [catechol, 1,2-dihydroxybenzene]
E. coli CFT073 biofilm; [8]
  inhibition of monoculture biofilm formation (OD570/OD600): significant inhibitory effects
E. coli CFT073 biofilm; [9]
  inhibitory effect on biofilm formation, with ciprofloxacin: significant inhibitory effects
[1]; [8]
  inhibition of monoculture biofilm formation (OD570/OD600): significant inhibitory effects
[1]; [9]
  inhibitory effect on biofilm formation, with ciprofloxacin: significant inhibitory effects
P. mirabilis HI4320
  Bacterial colony forming ability (Δ log CFU mL^−1): 3.2 Δ log CFU mL^−1
P. mirabilis HI4320; listed as Catechol
  Bacterial colony forming ability (Δ log CFU mL^−1): ≥ 1.5 Δ log CFU mL^−1
[2]
  % cells with uncompromised membrane: 50.3%
[3]
  % cells with uncompromised membrane (BacLight assay): 68%
[4]
  Minimum permeabilization concentration: 0.5 mg/mL
E. coli CFT073; ciprofloxacin in combination with the labelled phenolic constituent
  FIC of ciprofloxacin: 0.25
E. coli CFT073; labelled constituent + gallic acid, * = synergistic
  FICI, gallic acid: 0.25*
E. coli CFT073; labelled constituent combined with gallic acid
  FIC, gallic acid: 0.13
E. coli CFT073; labelled phenolic constituent in combination with ciprofloxacin
  FIC of compound: 0.25
[5]
  Efflux pump activity: 34.3%
[6]
  Efflux pump activity: 29.9%
[7]
  % EtBr efflux: 35.8%
